Data as given in patent US20140023715A1, “POLYMER CONJUGATES TARGETING CELLS AND METHODS RELATED THERETO” (EMORY UNIVERSITY, priority 2011, published 2014).
pIC50: −log10 of the molar value.

Assays:
[1] = test system: MIA PaCa-2 orthotopic pancreatic tumor; assay: Tumor growth inhibition in mice bearing orthotopic MIA PaCa-2 pancreatic cancer; type: in vivo; conditions: i.v., gemcitabine-equivalent 2 mg/kg, five times
Procedure: (a) Mean tumor weight (blue bar) of non-, gemcitabine-, Gem-IONP, and ATF-Gem-IONPs treated MIA PaCa-2 bearing mice and individual weight distribution in every group (various symbols). Mice were given by i.v. injection of gemcitabine-equivalent dose of 2 mg/kg five times at 3- or 4-day intervals. At the end of the experimental period, tumor tissues were isolated and weighed. Values represent mean±S.D. for 16 mice. *Statistically significant difference vs. control, p<0.0001. **Statistically significant difference vs. gemcitabine and […] groups, p<0.05. (b) Representative tumor images of each group after dissection.
The tumor growth inhibition effect of ATF-Gem-IONPs was studied using female mice bearing orthotopical pancreatic cancer from an uPAR positive human pancreatic cancer cell line, MIA PaCa-2. NPs were administered five times at twice a week and the dose of ATF-Gem-IONPs was calculated based on gemcitabine-equivalence. Tumors were weighed at the end of the experiment, and average tumor weight was compared between groups (FIG. 4A). All of treated groups inhibited tumor growth compared to non-treated control group. […] Tumor weights agreed well tumor volumes results (FIG. 4B).

MIA PaCa-2 cells = assay: Cell proliferation, Crystal violet assay, 96 h; type: cell-based; conditions: Homo sapiens

pIC50 (MIA PaCa-2 cells; gemcitabine-equivalent): 6.30
Structure (SMILES): Nc1ccn([C@@H]2O[C@H](CO)[C@@H](O)C2(F)F)c(=O)n1 [gemcitabine]
tumor growth inhibition compared to non-treated control (tumor weight) [1]: 30%
viability at 1 µM (MIA PaCa-2 cells; gemcitabine equivalent concentration of 1 μM): 39%
